System: Human Umbilical Vein Endothelial cells
Test: HUVEC proliferation assay (VEGF-stimulated)
Assay type: cell-based
Settings: VEGF 50 ng/mL final, 72 h incubation, CyQuant dye, read-out: inhibited VEGF-stimulated HUVEC proliferation at a level (IC50)
Experimental: Human Umbilical Vein Endothelial cells are purchased from Clonetics, Inc., as cryopreserved cells harvested from a pool of donors. These cells, at passage 1, are thawed and expanded in EBM-2 complete medium, until passage 2 or 3. The cells are trypsinized, washed in DMEM+10% FBS+antibiotics, and spun at 1000 rpm for 10 min. Prior to centrifugation of the cells, a small amount is collected for a cell count. After centrifugation, the medium is discarded, and the cells are resuspended in the appropriate volume of DMEM+10% FBS+antibiotics to achieve a concentration of 3×10^5 cells/mL. Another cell count is performed to confirm the cell concentration. The cells are diluted to 3×10^4 cells/mL in DMEM+10% FBS+antibiotics, and 100 μL of cells are added to a 96-well plate. The cells are incubated at 37° C. for 22 h.
Prior to the completion of the incubation period, compound dilutions are prepared. Five-point, five-fold serial dilutions are prepared in DMSO, at concentrations 400-fold greater than the final concentrations desired. 2.5 μL of each compound dilution are diluted further in a total of 1 mL DMEM+10% FBS+antibiotics (400× dilution). Medium containing 0.25% DMSO is also prepared for the 0 μM compound sample. After 22-h, the medium is removed from the cells, and 100 μL of each compound dilution is added. The cells are incubated at 37° C. for 2-3 h.
During the compound pre-incubation period, the growth factors are diluted to the appropriate concentrations. Solutions of DMEM+10% FBS+antibiotics, containing either VEGF or bFGF at the following concentrations: 50, 10, 2, 0.4, 0.08, and 0 ng/mL are prepared. For the compound-treated cells, solutions of VEGF at 550 ng/mL or bFGF at 220 ng/mL for 50 ng/mL or 20 ng/mL final concentrations, respectively, are prepared since 10 μL of each will be added to the cells (110 μL final volume). At the appropriate time after adding the compounds, the growth factors are added. VEGF is added to one set of plates, while bFGF is added to another set of plates. For the growth factor control curves, the media on wells B4-G6 of plates 1 and 2 are replaced with media containing VEGF or bFGF at the varying concentrations (50-0 ng/mL). The cells are incubated at 37° C. for an additional 72 h.
At the completion of the 72 h incubation period, the medium is removed, and the cells are washed twice with PBS. After the second wash with PBS, the plates are tapped gently to remove excess PBS, and the cells are placed at −70° C. for at least 30 min. […] Raw data are collected and analyzed using a 4-parameter fit equation in XLFit. IC50 values are then determined.

SMILES | IC50 [nM]
COc1cc2nccc(Oc3ccc4oc(Nc5ccc(Cl)c(OC[C@@H]6CCCN6C)c5)nc4c3)c2cc1OC [Example 259, S-[4-Chloro-3-(1-methylpyrrolidin-2-ylmethoxy)-phenyl]-[5-(6,7-dimethoxyquinolin-4-yloxy)-benzoxazol-2-yl]-amine] | < 100
COc1cc2ncnc(Oc3ccc4oc(Nc5ccc(Cl)c(OC[C@@H]6CCCN6C)c5)nc4c3)c2cc1OC [Example 263, S-[4-Chloro-3-(1-methyl-pyrrolidin-2-ylmethoxy)-phenyl]-[5-(6,7-dimethoxy-quinazolin-4-yloxy)-benzoxazol-2-yl]-amine] | < 100
CN(C)C1CCN(Cc2cc(Nc3nc4cc(Oc5ccnc6[nH]ccc56)ccc4o3)ccc2Cl)C1 (stereo not shown) [Example 264, [4-Chloro-3-(3-dimethylamino-pyrrolidin-1-ylmethyl)-phenyl]-[5-(1H-pyrrolo[2,3-b]pyridin-4-yloxy)-benzoxazol-2-yl]-amine] | < 100
CN1CCC(COc2cc(Nc3nc4cc(Oc5ccnc6[nH]ccc56)ccc4o3)ccc2Cl)CC1 [Example 265, [4-Chloro-3-(1-methyl-piperidin-4-ylmethoxy)-phenyl]-[5-(1H-pyrrolo[2,3-b]pyridin-4-yloxy)-benzoxazol-2-yl]-amine] | < 100
